Patent US20220125771A1, “S[…], ANALOGUES THEREOF, AND METHODS USING SAME” (priority 2019, published 2022)

The molecules below were run on HBsAg in HepG2.2.15 cells (assay: HBsAg Assay: inhibition of HBsAg in HepG2.2.15 cells (CLIA immunoassay of supernatant)). Conditions: Hepatitis B virus, HepG2.2.15, 144 h, read-out: sAg EC50, μM, HepG2.2.15 cells; supernatant collected at day 6 after exposure of compounds; final DMSO 0.5%.
Format: cell-based, hepatitis B virus
Description: Inhibition of HBsAg was determined in HepG2.2.15 cells. Cells were maintained in culture medium containing 10% fetal calf serum, […], Glutamine, penicillin/streptomycin. Cells were seeded in 96-well collagen-coated plate at a density of 30,000 cells/well. Serially diluted compounds were added to cells next day at the final DMSO concentration of 0.5%. Cells were incubated with compounds for 2-3 days, after which medium was removed. Fresh medium containing compounds was added to cells for additional 3-4 days. At day 6 after exposure of compounds, supernatant was collected, the HBsAg immunoassay (microplate-based chemiluminescence immunoassay kits, CLIA, Autobio Diagnosics Co., Zhengzhou, China, Catalog #CL0310-2) was used to determine the level of HBsAg according to manufactory instruction. Dose-response curves were generated and the EC50 value (effective concentrations that achieved 50% inhibitory effect) were determined using XLfit software. In addition, cells were seeded at a density of 5,000 cells/well for determination of cell viability in the presence and absence of compounds by using CellTiter-Glo reagent (Promega). Tables 1-3 show EC50 values obtained by the HBsAg assay for selected compounds.

Compared with `CCN1CCCc2c3c(cc(OC(F)F)c21)-c1[nH]c(=O)c(C(=O)O)cc1C(C(C)(C)C)C3` (centres unmarked) [Example 34, 6-(tert-Butyl)-12-(difluoromethoxy)-1-ethyl-9-oxo-1,2,3,4,5,6,9,10-octahydroquinolino[7,8-f]quinoline-8-carboxylic Acid], `COCCCN1CCCc2c3c(cc(OC(F)F)c21)-c1[nH]c(=O)c(C(=O)O)cc1C(C(C)(C)C)C3` (centres unmarked) [Example 30, 6-(tert-Butyl)-12-(difluoromethoxy)-1-(3-methoxypropyl)-9-oxo-1,2,3,4,5,6,9,10-octahydroquinolino[7,8-f]quinoline-8-carboxylic Acid] is 17-fold higher in EC50: 0.012 µM for the first, 0.2 µM for the second. The first is the more potent here.

Going from `COCCOc1cccc2c1cc1n2CC(C(C)(C)C)c2c-1[nH]c(=O)c(C(=O)O)c2O` (centres unmarked) [Example 6, 5-(tert-Butyl)-4-hydroxy-11-(2-methoxyethoxy)-2-oxo-1,2,5,6-tetrahydroindolo[1,2-h][1,7] naphthyridine-3-carboxylic Acid] to `COc1cccc2c1cc1n2CC(C(C)(C)C)c2c-1[nH]c(=O)c(C(=O)O)c2O` (centres unmarked) [Example 4, 5-(tert-Butyl)-4-hydroxy-11-methoxy-2-oxo-1,2,5,6-tetrahydroindolo[1,2-h][1,7]naphthyridine-3-carboxylic Acid], the EC50 falls from 0.76 µM to 0.13 µM (5.8-fold).

Compared with `CC(C)(C)C1Cn2c(nc3c(OC(F)F)cccc32)-c2[nH]c(=O)c(C(=O)O)c(O)c21` (centres unmarked) [Example 25, 5-(tert-Butyl)-11-(difluoromethoxy)-4-hydroxy-2-oxo-1,2,5,6-tetrahydrobenzo[4,5]imidazo[1,2-h][1,7]naphthyridine-3-carboxylic Acid], `CC(C)(C)C1Cn2c(cc3c(OC(F)F)cccc32)-c2[nH]c(=O)c(C(=O)O)c(O)c21` (centres unmarked) [Example 1, 5-(tert-Butyl)-11-(difluoromethoxy)-4-hydroxy-2-oxo-1,2,5,6-tetrahydroindolo[1,2-h][1,7]naphthyridine-3-carboxylic Acid] is 2.2-fold higher in EC50: 0.004 µM for the first, 0.009 µM for the second.

Same assay, conditions: read-out: sAg EC50; HepG2.2.15 cells; supernatant collected at day 6 after exposure of compounds; final DMSO 0.5%

Going from `CN1CCCc2c3c(cc(OC(F)F)c21)-c1[nH]c(=O)c(C(=O)O)cc1C(C(C)(C)C)C3` (single isomer, unassigned) [Example 33, 6-(tert-Butyl)-12-(difluoromethoxy)-1-methyl-9-oxo-1,2,3,4,5,6,9,10-octahydroquinolino[7,8-f]quinoline-8-carboxylic Acid] to `CC(C)(C)C1Cc2c(cc(OC(F)F)c3ncccc23)-c2[nH]c(=O)c(C(=O)O)cc21` (single isomer, unassigned) [Example 37, 6-(tert-Butyl)-12-(difluoromethoxy)-9-oxo-5,6,9,10-tetrahydroquinolino[7,8-f]quinoline-8-carboxylic Acid], the EC50 falls from 0.3 µM to 0.003 µM (100-fold). The second is the more potent here.

First: COc1cccc2c1nc1n2CC(C(C)(C)C)c2cc(C(=O)O)c(=O)[nH]c2-1 (single isomer, unassigned) [Example 28, 5-(tert-Butyl)-11-methoxy-2-oxo-1,2,5,6-tetrahydrobenzo[4,5]imidazo[1,2-h][1,7]naphthyridine-3-carboxylic Acid]
Second: COc1cccn2c3c(nc12)-c1[nH]c(=O)c(C(=O)O)cc1C(C(C)(C)C)C3 (single isomer, unassigned) [Example 14, 5-(tert-Butyl)-11-methoxy-2-oxo-1,2,5,6-tetrahydropyrido[2′,1′:2,3]imidazo[4,5-h]quinoline-3-carboxylic Acid]
The EC50 of the first is 7.8-fold higher: 0.093 µM for the first, 0.012 µM for the second.

Going from `COc1ccn2c3c(nc2c1OC)-c1c(cc(C(=O)O)c(=O)n1C)C(C(C)(C)C)C3` (single isomer, unassigned) [Example 22, 5-(tert-Butyl)-10,11-dimethoxy-1-methyl-2-oxo-1,2,5,6-tetrahydropyrido[2′,1′:2,3]imidazo[4,5-h]quinoline-3-carboxylic Acid] to `COc1ccn2c3c(nc2c1OC)-c1[nH]c(=O)c(C(=O)O)cc1C(C(C)(C)C)C3` (single isomer, unassigned) [Example 18, 5-(tert-Butyl)-10,11-dimethoxy-2-oxo-1,2,5,6-tetrahydropyrido[2′,1′:2,3]imidazo[4,5-h]quinoline-3-carboxylic Acid], the EC50 falls from 0.11 µM to 0.005 µM (22-fold). The second is the more potent here.

First: CC(C)C1Cc2cc(C(=O)O)c(=O)[nH]c2-c2nc3c(OC(F)F)cccn3c21 (single isomer, unassigned) [Example 20, 11-(Difluoromethoxy)-6-isopropyl-2-oxo-1,2,5,6-tetrahydropyrido[2′,1′:2,3]imidazo[4,5-h]quinoline-3-carboxylic Acid]
Second: CC(C)C1Cc2c(nc3c(OC(F)F)cccn23)-c2[nH]c(=O)c(C(=O)O)cc21 (single isomer, unassigned) [Example 13, 11-(Difluoromethoxy)-5-isopropyl-2-oxo-1,2,5,6-tetrahydropyrido[2′,1′:2,3]imidazo[4,5-h]quinoline-3-carboxylic Acid]
The EC50 of the first is 11-fold lower: 0.099 µM for the first, 1.1 µM for the second. The first is the more potent here.

Compared with `CC(C)(C)C1Cn2c(cc3c(OC(F)F)cccc32)-c2[nH]c(=O)c(C(=O)O)c(O)c21` (single isomer, unassigned) [Example 2, 5-(tert-Butyl)-11-(difluoromethoxy)-4-hydroxy-2-oxo-1,2,5,6-tetrahydroindolo[1,2-h][1,7]naphthyridine-3-carboxylic Acid], `CC(C)(C)C1Cc2c(cc(OC(F)F)c3ncccc23)-c2[nH]c(=O)c(C(=O)O)cc21` (single isomer, unassigned) [Example 38, 6-(tert-butyl)-12-(difluoromethoxy)-9-oxo-5,6,9,10-tetrahydroquinolino[7,8-f]quinoline-8-carboxylic Acid] is 3-fold higher in EC50: 1 µM for the first, 3 µM for the second. The first is the more potent here.

First: COc1nc2c(c3ccccc13)CC(C(C)(C)C)c1cc(C(=O)O)c(=O)[nH]c1-2 (single isomer, unassigned) [Example 42, 12-(tert-Butyl)-6-methoxy-3-oxo-3,4,11,12-tetrahydrobenzo[c][1,10]phenanthroline-2-carboxylic Acid]
Second: COc1cc2c(c3cccnc13)CC(C(C)(C)C)c1cc(C(=O)O)c(=O)[nH]c1-2 (single isomer, unassigned) [Example 36, 6-(tert-Butyl)-12-methoxy-9-oxo-5,6,9,10-tetrahydroquinolino[7,8-f]quinoline-8-carboxylic Acid]
The EC50 of the first is 69-fold lower: 0.075 µM for the first, 5.2 µM for the second. The first is the more potent here.

Compared with `COc1ccn2c3c(nc2c1OC)-c1c(cc(C(=O)O)c(=O)n1C)C(C(C)(C)C)C3` (single isomer, unassigned) [Example 23, 5-(tert-butyl)-10,11-dimethoxy-1-methyl-2-oxo-1,2,5,6-tetrahydropyrido[2′,1′:2,3]imidazo[4,5-h]quinoline-3-carboxylic Acid], `COc1cccn2c3c(nc12)-c1[nH]c(=O)c(C(=O)O)cc1C(C(C)C)C3` (single isomer, unassigned) [Example 17, 5-Isopropyl-11-methoxy-2-oxo-1,2,5,6-tetrahydropyrido[2′,1′:2,3]imidazo[4,5-h]quinoline-3-carboxylic Acid] is 910-fold higher in EC50: 0.011 µM for the first, 10 µM for the second.
